Patent publication US20090143279A1 (priority 2007, published 2009)
Where “and” joins values, the source holds several entries; their conditions need not be identical. Equal values may be shown once. Where a SMILES comes first, the peptide text is derived from it.

Test system: mitochondrial membrane potential
Type: cell-based, mouse
Settings: not given

Molecule | ΔΨm
CC([C@H](O)c1ccccc1)N(C)C (stereo partly drawn) [N-methyl (−)ephedrine] | −0.068
CCN(CC)C(=O)N[C@H]1C[C@@H]2c3cccc4[nH]cc(c34)C[C@H]2N(C)C1 [S(+)-terguride] | −0.585
CC1(C)S[C@@H]2[C@H](NC(=O)Cc3ccccc3)C(=O)N2[C@H]1C(=O)O.CC1(C)S[C@@H]2[C@H](NC(=O)Cc3ccccc3)C(=O)N2[C@H]1C(=O)O.c1ccc(CNCCNCc2ccccc2)cc1 [benzathine benzylpenicillin] | 0.729
C[C@@H]1C[C@H]2[C@@H]3CCC4=CC(=O)C=C[C@]4(C)[C@@]3(F)[C@@H](O)C[C@]2(C)[C@@]1(O)C(=O)CO [dexamethasone] | 0.240 and 0.273
CCC1(c2ccc(N)cc2)CCC(=O)NC1=O (centres unmarked) [para-aminoglutethimide] | −0.416

Same assay, conditions: assay control, FIG. 3-3

Molecule | mitochondrial membrane potential
N#CC(C#N)=NNc1cccc(Cl)c1 [CCCP, carbonyl cyanide m-chlorophenylhydrazone, reference compound] | depolarization

Test system: reactive oxygen species
Type: cell-based, mouse
Settings: not given

Molecule | ROS
CC1(C)S[C@@H]2[C@H](NC(=O)[C@H](N)c3ccc(O)cc3)C(=O)N2[C@H]1C(=O)O [amoxicillin] | 1.061
CN(C)CCCN1c2ccccc2CCc2ccc(Cl)cc21 [clomipramine] | 0.466
CC(C)[N+]1(C)[C@@H]2CC[C@H]1C[C@@H](OC(=O)C(CO)c1ccccc1)C2 (some centres unmarked) [ipratropium] | 1.245
CC(C(=O)O)c1cccc(C(=O)c2ccccc2)c1 (centres unmarked) [ketoprofen] | 0.545
CS(=O)(=O)Nc1ccc([N+](=O)[O-])cc1Oc1ccccc1 [nimesulide] | 1.468 and 1.174
C[C@]12C=CC(=O)C=C1CC[C@@H]1[C@@H]2[C@@H](O)C[C@@]2(C)[C@H]1CC[C@]2(O)C(=O)CO [prednisolone] | 0.248
Cc1cc(NS(=O)(=O)c2ccc(N)cc2)no1 [sulfamethoxazole] | 1.114
COc1cc(Cc2cnc(N)nc2N)cc(OC)c1OC [trimethoprim] | 1.375

Same assay, conditions: Table 4; C2C12 myotubes, 48 h, composite Z-score

Molecule | ROS
COc1ccc([C@H]2COc3c(ccc(O)c3OC)C2)c(OC)c1O [duartin(−), reference compound] | 0.900

Test system: cytochrome c
Type: cell-based, mouse
Settings: not given

Chain of cytochrome c (P62897 whole entry): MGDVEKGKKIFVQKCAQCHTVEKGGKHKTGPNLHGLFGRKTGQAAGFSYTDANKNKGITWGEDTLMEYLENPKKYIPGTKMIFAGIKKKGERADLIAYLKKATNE

Molecule | cyt c (composite Z-score vs DMSO) | cyt c | cyt c (composite Z-score) | cyt c (composite Z-score vs DMSO mock-treated wells)
COc1cc2nc(N3CCN(C(=O)C4CCCO4)CC3)nc(N)c2cc1OC (centres unmarked) [terazosin] | −0.258 |  |  | 
CC(C)(C)c1ccc(C(O)CCCN2CCC(C(O)(c3ccccc3)c3ccccc3)CC2)cc1 (centres unmarked) [terfenadine] | −0.611 |  |  | 
C[C@]12CC[C@H]3[C@@H](CCC4=CC(=O)CC[C@@]43C)[C@@H]1CC[C@@H]2O [testosterone] |  | −0.787 |  | 
c1ccc(C2CN3CCSC3=N2)cc1 (centres unmarked) [tetramisole] |  | 0.209 |  | 
Cc1ncc(C[n+]2csc(CCO)c2C)c(N)n1 [thiamine] |  |  | 0.284 | 
Nc1nc2nc[nH]c2c(=S)[nH]1 [thioguanine] | −1.454 |  |  | 
CCCC(C)C1(CC)C(=O)NC(=S)NC1=O (centres unmarked) [thiopental] | −0.299 |  |  | 
CN1CCN(CC/C=C2/c3ccccc3Sc3ccc(S(=O)(=O)N(C)C)cc32)CC1 [thiothixene] |  | 0.307 |  | 
Clc1ccccc1CN1CCc2sccc2C1 [ticlopidine] | −0.316 |  |  | 
Cc1ccc(O)c([C@H](CCN(C(C)C)C(C)C)c2ccccc2)c1 [tolterodine] |  | −0.406 |  | 
CCOC(=O)[C@H](CCc1ccccc1)N[C@@H](C)C(=O)N1[C@H](C(=O)O)C[C@H]2CCCC[C@@H]21 [trandolapril] |  | 0.039 |  | 
O=c1n(CCCN2CCN(c3cccc(Cl)c3)CC2)nc2ccccn12 [trazodone] | 0.028 and 0.038 |  |  | 
CC(C)(C)C(=O)C(Oc1ccc(Cl)cc1)n1cncn1 (centres unmarked) [triadimefon] |  | 0.286 |  | 
C[C@]12C=CC(=O)C=C1CC[C@H]1[C@@H]3C[C@@H](O)[C@](O)(C(=O)CO)[C@@]3(C)C[C@H](O)[C@@]12F [triamcinolone] | 0.087 | −1.483 |  | 
C[n+]1cccc(C(=O)[O-])c1 [trigonelline] |  |  | −0.072 | 
O=c1ccc2ccc(O)cc2o1 [umbelliferone] |  |  | −0.272 | 
CC(=O)CC(c1ccccc1)c1c(O)c2ccccc2oc1=O (centres unmarked) [warfarin] |  | 0.267 |  | 
Cc1cn([C@H]2C[C@H](N=[N+]=[N-])[C@@H](CO)O2)c(=O)[nH]c1=O [zidovudine] |  | 0.611 |  | 0.637
catechin hydrate [reference compound] |  | 1.085 |  | 

Same assay, conditions: composite Z-score vs mock-treated (DMSO) wells; concentration of each compound in μM

Molecule | cyt c
CC[C@H]1OC(=O)[C@H](C)C(=O)[C@H](C)[C@@H](O[C@@H]2O[C@H](C)C[C@H](N(C)C)[C@H]2O)[C@](C)(OC)C[C@@H](C)C(=O)[C@H](C)[C@H]2N(CCCCn3cnc(-c4cccnc4)c3)C(=O)O[C@]12C [telithromycin] | −0.023
CCCc1nc2c(C)cc(-c3nc4ccccc4n3C)cc2n1Cc1ccc(-c2ccccc2C(=O)O)cc1 [telmisartan] | −0.044
CC(C)N1CCN(c2ccc(OCC3COC(Cn4cncn4)(c4ccc(Cl)cc4Cl)O3)cc2)CC1 (centres unmarked) [terconazole] | 0.552
COC(=O)C1=CO[C@@H](C)[C@@H]2CN3CCc4c([nH]c5ccccc45)[C@@H]3C[C@H]12 [tetrahydroalstonine] | 1.439
COc1c(O[C@@H]2O[C@H](CO)[C@@H](O)[C@H](O)[C@H]2O)cc2c(c1OC)-c1ccc(SC)c(=O)cc1[C@@H](NC(C)=O)CC2 [thiocolchicoside] | 0.108
C=C(NC(=O)C(=C)NC(=O)c1csc(C2=N[C@@H]3c4csc(n4)[C@H]4NC(=O)c5csc(n5)[C@H]([C@](C)(O)[C@@H](C)O)NC(=O)[C@H]5CSC(=N5)/C(=C/C)NC(=O)[C@H]([C@@H](C)O)NC(=O)c5csc(n5)[C@]3(CC2)NC(=O)[C@H](C)NC(=O)C(=C)NC(=O)[C@H](C)NC(=O)[C@H]([C@@H](C)CC)N[C@@H]2C=Cc3c([C@H](C)O)cc(nc3[C@H]2O)C(=O)O[C@@H]4C)n1)C(N)=O [thiostrepton] | −1.134
CC1(C)O[C@@H]2[C@@H](CO[C@@]3(COS(N)(=O)=O)OC(C)(C)O[C@@H]23)O1 [topiramate] | −0.093
C[C@@H]1O[C@@H](OC[C@H]2O[C@@H](Oc3c(-c4ccc(OCCO)c(OCCO)c4)oc4cc(OCCO)cc(O)c4c3=O)[C@H](O)[C@@H](O)[C@@H]2O)[C@H](O)[C@H](O)[C@H]1O [troxerutin] | −0.673
COc1cc2c3cc1Oc1cc(ccc1O)C[C@@H]1c4c(cc(OC)c(O)c4Oc4ccc(cc4)C[C@@H]3N(C)CC2)CC[N+]1(C)C [tubocurarine] | 1.117
CC[C@H]1OC(=O)C[C@@H](O)[C@H](C)[C@@H](O[C@@H]2O[C@H](C)[C@@H](O[C@H]3C[C@@](C)(O)[C@@H](O)[C@H](C)O3)[C@H](N(C)C)[C@H]2O)[C@@H](CC=O)C[C@@H](C)C(=O)/C=C/C(C)=C/[C@@H]1CO[C@@H]1O[C@H](C)[C@@H](O)[C@@H](OC)[C@H]1OC [tylosin] | −0.007
CC(C)[C@H](N)C(=O)N[C@@H](Cc1c[nH]c2ccccc12)C(=O)O [valyltryptophan] (H-Val-Trp-OH) | −0.626
COc1ccc(C(CN(C)C)C2(O)CCCCC2)cc1 (centres unmarked) [venlafaxine] | 0.627
C[C@H]1CCCC(=O)CCC/C=C/c2cc(O)cc(O)c2C(=O)O1 [zearalenone] | −0.185

Same assay, conditions: normalized score (composite Z-score vs DMSO mock-treated wells); compound concentration (μM)

Molecule | cyt c
CC(C(=O)O)c1ccc(C(=O)c2ccccc2)s1 (centres unmarked) [tiaprofenic acid] | 0.644
